According to patent US9815787B2, “Sulfonamide derivative or pharmaceutically acceptable acid addition salt thereof” (UNIVERSITY OF TSUKUBA, priority 2013, dated 2017):

Target: T1, OX2R (Homo sapiens, UniProt O43614)
T1 construct: expressed in transfected cells; host or cells: CHO (Chinese hamster ovary) cells constitutively expressing the OX2R gene and NFAT-luciferase (CHOOX2R)
T1 sequence (O43614 1-444): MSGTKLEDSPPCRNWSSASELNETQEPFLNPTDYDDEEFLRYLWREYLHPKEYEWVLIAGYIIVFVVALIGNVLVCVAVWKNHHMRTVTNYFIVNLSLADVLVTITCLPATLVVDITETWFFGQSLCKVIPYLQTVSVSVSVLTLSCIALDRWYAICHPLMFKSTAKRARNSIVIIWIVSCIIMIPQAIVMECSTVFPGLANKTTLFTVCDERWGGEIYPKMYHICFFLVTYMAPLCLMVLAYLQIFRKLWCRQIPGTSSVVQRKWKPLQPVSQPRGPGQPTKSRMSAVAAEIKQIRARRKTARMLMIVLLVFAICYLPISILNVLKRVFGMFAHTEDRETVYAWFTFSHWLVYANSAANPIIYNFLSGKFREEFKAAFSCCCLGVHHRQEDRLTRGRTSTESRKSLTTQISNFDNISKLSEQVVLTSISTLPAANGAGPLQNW
Test: Evaluation of agonist activity against OX2R (CHOOX2R cells, Fura2AM fluorescence, FDSS3000)
Assay type: cell-based
Procedure, shortened: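 CHO cells stably expressing human OX2R (and NFAT-luciferase), cultured 48 h in 5% FBS DMEM. Agonist response read as change in Fura2AM fluorescence on compound addition in HEPES buffer. Final compound concentrations 0.1, 1.0 or 10 μM; 1% DMSO.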

[1] = OX2R agonist activity; CHOOX2R cells
[2] = conversion with orexin-A as full agonist (maximum agonist activity 100%)
[3] = test compound 0.1 μM; CHOOX2R cells; relative to orexin-A as full agonist (100%)
[4] = test compound 1.0 μM; CHOOX2R cells; relative to orexin-A as full agonist (100%)
[5] = test compound 10 μM; CHOOX2R cells; relative to orexin-A as full agonist (100%)
[6] = test compound 0.1 μM; relative to orexin-A as full agonist (100%); CHOOX2R cells
[7] = test compound 1.0 μM; relative to orexin-A as full agonist (100%); CHOOX2R cells
[8] = test compound 10 μM; relative to orexin-A as full agonist (100%); CHOOX2R cells

## CNC(=O)c1cccc(-c2ccc(OC)c(S(=O)(=O)Nc3cccc(NCCNC(=O)c4ccccc4OC)c3)c2)c1 [Example 73, 4′-methoxy-3′-(N-(3-((2-(2-methoxybenzamido)ethyl)amino)phenyl)sulfamoyl)-N-methyl-[1,1′-biphenyl]-3-carboxamide]
[1]
  EC50: 182 nM
[2]
  Emax: 98%
[3]
  Response (0.1 μM (%)): 45%
[4]
  Response (1.0 μM (%)): 90%
[5]
  Response (10 μM (%)): 98%

## COc1ccc(-c2cccc(C(=O)N3CCCCC3)c2)cc1S(=O)(=O)Nc1cccc(NCCNC(=O)c2ccccc2F)c1 [Example 90, 2-fluoro-N-(2-((3-(4-methoxy-3′-(piperidine-1-carbonyl)-[1,1′-biphenyl]-3-ylsulfonamido)phenyl)amino)ethyl)benzamide]
[3]
  Response (0.1 μM (%)): 51%
[4]
  Response (1.0 μM (%)): 68%
[5]
  Response (10 μM (%)): 88%

## COc1cc(C)c(-c2cccc(C(=O)N(C)C)c2)cc1S(=O)(=O)Nc1cccc(NCCNC(=O)c2cccnc2OC)c1 [Example 103, N-(2-((3-(3′-(dimethylcarbamoyl)-4-methoxy-6-methyl-[1,1′-biphenyl]-3-ylsulfonamido)phenyl)amino)ethyl)-2-methoxynicotinamide]
[6]
  Response (0.1 μM (%)): 77%
[7]
  Response (1.0 μM (%)): 93%
[8]
  Response (10 μM (%)): 80%

## COc1cc(C)c(-c2cccc(C(=O)N(C)C)c2)cc1S(=O)(=O)Nc1cccc(NCCNC(=O)c2cccc(F)c2)c1 [Example 102, 5′-(N-(3-((2-(3-fluorobenzamido)ethyl)amino)phenyl)sulfamoyl)-4′-methoxy-N,N,2′-trimethyl-[1,1′-biphenyl]-3-carboxamide]
[6]
  Response (0.1 μM (%)): 61%
[7]
  Response (1.0 μM (%)): 83%
[8]
  Response (10 μM (%)): 85%

## COc1ccc(-c2cccc(C(=O)N(C)C)c2)cc1S(=O)(=O)Nc1cccc(NCCNC(=O)c2ccoc2C)c1 [Example 67, N-(2-((3-(3′-(dimethylcarbamoyl)-4-methoxy-[1,1′-biphenyl]-3-ylsulfonamido)phenyl)amino)ethyl)-2-methylfuran-3-carboxamide]
[3]
  Response (0.1 μM (%)): 55%
[4]
  Response (1.0 μM (%)): 96%
[5]
  Response (10 μM (%)): 76%

## COc1ccc(-c2cccc(C(=O)N(C)C)c2)cc1S(=O)(=O)Nc1cccc(NCCNC(=O)c2c(F)cccc2OC)c1 [Example 70, 3′-(N-(3-((2-(2-fluoro-6-methoxybenzamido)ethyl)amino)phenyl)sulfamoyl)-4′-methoxy-N,N-dimethyl-[1,1′-biphenyl]-3-carboxamide]
[3]
  Response (0.1 μM (%)): 34%
[4]
  Response (1.0 μM (%)): 105%
[5]
  Response (10 μM (%)): 85%

## COc1ccc(-c2cccc(C(=O)N(C)C)c2)cc1S(=O)(=O)Nc1cccc(NCCNC(=O)c2cnccc2Cl)c1 [Example 57, 4-chloro-N-(2-((3-(3′-(dimethylcarbamoyl)-4-methoxy-[1,1′-biphenyl]-3-ylsulfonamido)phenyl)amino)ethyl)nicotinamide]
[3]
  Response (0.1 μM (%)): <5%
[4]
  Response (1.0 μM (%)): 9%
[5]
  Response (10 μM (%)): 87%

## COc1cccc(C(=O)NCCNc2cccc(NS(=O)(=O)c3cc(-c4cc(F)ccc4F)ccc3OC)c2)c1 [Example 20, N-(2-((3-(2′,5′-difluoro-4-methoxy-[1,1′-biphenyl]-3-ylsulfonamide)phenyl)amino)ethyl)-3-methoxybenzamide]
[6]
  Response (0.1 μM (%)): <5%
[7]
  Response (1.0 μM (%)): 13%
[8]
  Response (10 μM (%)): 180%

## COc1ccccc1C(=O)NCCNc1cccc(NS(=O)(=O)c2cc(-c3cccc(F)c3)ccc2OC)c1 [Example 109, N-(2-((3-(3′-fluoro-4-methoxy-[1,1′-biphenyl]-3-ylsulfonamido)phenyl)amino)ethyl)-2-methoxybenzamide]
[6]
  Response (0.1 μM (%)): 13%
[7]
  Response (1.0 μM (%)): 46%
[8]
  Response (10 μM (%)): 47%

## COc1ccccc1C(=O)NCCNc1cccc(NS(=O)(=O)c2cc(-c3cccc(C(=O)N(C)C)c3)ccc2OC)c1 [Example 40, 4′-methoxy-3′-(N-(3-((2-(2-methoxybenzamido)ethyl)amino)phenyl)sulfamoyl)-N,N-dimethyl-[1,1′-biphenyl]-3-carboxamide]
[1]
  EC50: 50 nM
[2]
  Emax: 74%
[3]
  Response (0.1 μM (%)): 35%
[4]
  Response (1.0 μM (%)): 74%
[5]
  Response (10 μM (%)): 74%

## COc1ccccc1C(=O)NCCNc1cccc(NS(=O)(=O)c2cc(-c3cccc(C(=O)NCC(F)(F)F)c3)ccc2OC)c1 [Example 78, 4′-methoxy-3′-(N-(3-((2-(2-methoxybenzamido)ethyl)amino)phenyl)sulfamoyl)-N-(2,2,2-trifluoroethyl)-[1,1′-biphenyl]-3-carboxamide]
[3]
  Response (0.1 μM (%)): <5%
[4]
  Response (1.0 μM (%)): 33%
[5]
  Response (10 μM (%)): 49%

## COc1cccc(C(=O)NCCNc2cccc(NS(=O)(=O)c3cc(-c4cc(OC)ccc4F)ccc3OC)c2)c1 [Example 35, N-(2-((3-(2′-fluoro-4,5′-dimethoxy-[1,1′-biphenyl]-3-ylsulfonamide)phenyl)amino)ethyl)-3-methoxybenzamide]
[3]
  Response (0.1 μM (%)): 13%
[4]
  Response (1.0 μM (%)): 68%
[5]
  Response (10 μM (%)): 127%

## COc1ccc(-c2cccc(C(=O)N3CCC3)c2)cc1S(=O)(=O)Nc1cccc(NCCNC(=O)c2ccccc2Cl)c1 [Example 82, N-(2-((3-(3′-(azetidine-1-carbonyl)-4-methoxy-[1,1′-biphenyl]-3-ylsulfonamido)phenyl)amino)ethyl)-2-chlorobenzamide]
[3]
  Response (0.1 μM (%)): <5%
[4]
  Response (1.0 μM (%)): 51%
[5]
  Response (10 μM (%)): 74%

## COc1ccc(-c2cccc(C(=O)N(C)C)c2)cc1S(=O)(=O)Nc1cccc(NCCNC(=O)c2sccc2C)c1 [Example 60, N-(2-((3-(3′-(dimethylcarbamoyl)-4-methoxy-[1,1′-biphenyl]-3-ylsulfonamido)phenyl)amino)ethyl)-3-methylthiophene-2-carboxamide]
[3]
  Response (0.1 μM (%)): <5%
[4]
  Response (1.0 μM (%)): 43%
[5]
  Response (10 μM (%)): 75%

## COc1ccc(-c2ccccc2F)cc1S(=O)(=O)Nc1cccc(NCCNC(=O)c2ccncc2)c1 [Example 16, N-(2-((3-(2′-fluoro-4-methoxy-[1,1′-biphenyl]-3-ylsulfonamide)phenyl)amino)ethyl)isonicotinamide]
[6]
  Response (0.1 μM (%)): <5%
[7]
  Response (1.0 μM (%)): <5%
[8]
  Response (10 μM (%)): <5%

## COc1cc(C)c(-c2cccc(C(=O)N(C)C)c2)cc1S(=O)(=O)Nc1cccc(NCCNC(=O)c2ccccc2Cl)c1 [Example 104, 5′-(N-(3-((2-(2-chlorobenzamido)ethyl)amino)phenyl)sulfamoyl)-4′-methoxy-N,N,2′-trimethyl-[1,1′-biphenyl]-3-carboxamide]
[6]
  Response (0.1 μM (%)): 67%
[7]
  Response (1.0 μM (%)): 88%
[8]
  Response (10 μM (%)): 86%

## COc1cccc(C(=O)NCCNc2cccc(NS(=O)(=O)c3cc(-c4ccccc4F)ccc3OC)c2)c1 [Example 2, N-(2-((3-(2′-fluoro-4-methoxy-[1,1′-biphenyl]-3-ylsulfonamide)phenyl)amino)ethyl)-3-methoxybenzamide]
[6]
  Response (0.1 μM (%)): <5%
[7]
  Response (1.0 μM (%)): 27%
[8]
  Response (10 μM (%)): 67%

## COc1ccccc1C(=O)NCCNc1cccc(NS(=O)(=O)c2cc(-c3cc(F)ccc3F)ccc2OC)c1 [Example 19, N-(2-((3-(2′,5′-difluoro-4-methoxy-[1,1′-biphenyl]-3-ylsulfonamide)phenyl)amino)ethyl)-2-methoxybenzamide]
[6]
  Response (0.1 μM (%)): <5%
[7]
  Response (1.0 μM (%)): 8%
[8]
  Response (10 μM (%)): 143%
